The source made the active and inactive calls. No cut-off for these calls is given here.
What was measured:
[1] = Neurogenesis in TOPRO+ mouse neural stem cells at 8 uM after 24 hrs relative to control
[2] = Neurogenesis in TUJ+MAP2+ mouse neural stem cells at 8 uM for 24 hrs relative to control
[3] = Neurogenesis in GFAP+ mouse neural stem cells at 8 uM after 24 hrs relative to control
Neural stem cell [4] = experiment: Inhibition of calcium induced neurogenesis in mouse neural stem cells in presence of 10 uM nifedipine
[5] = Neurogenesis of TUJ/MAP2+ mouse neural stem cells at 8 uM assessed as calcium influx relative to control
[6] = Neurogenesis of TUJ/MAP2+ mouse neural stem cells at 8 uM in presence of 5 uM nifedipine assessed as calcium influx relative to control
Neural stem cell [7] = experiment: Increase in calcium concentration in mouse neural stem cells at 5 uM assessed as […] ratio F350/F380; conditions: TDE = time-dependent effect
Neural stem cell [8] = experiment: Decrease in number of neurons in TUJ/MAP2+ mouse neural stem cells at 15 uM
Neural stem cell [9] = experiment: Neuronal differentiation in TUJ/MAP2+ EGF responsive mouse neural stem cells at 1 to 8 uM after 72 hrs
Neural stem cell [10] = experiment: Neurogenesis of TUJ/MAP2+ mouse neural stem cells at 8 uM afte 12, 24, 48 hrs
Neural stem cell [11] = experiment: Decrease in number of neurons in TUJ/MAP2+ mouse neural stem cells at 8 uM after 72 hrs
[12] = Neurogenesis in TUJ+MAP2+ mouse neural stem cells at 1 uM relative to control
[13] = Neurogenesis in GFAP+ mouse neural stem cells at 1 uM relative to control
[14] = Neurogenesis in TOPRO+ mouse neural stem cells at 1 uM relative to control

SMILES | Activity [1] [%] | Activity [2] [%] | Activity [3] [%] | Activity (Neural stem cell [4]) | Activity [5] [%] | Activity [6] [%] | Activity (Neural stem cell [7]) | Activity (Neural stem cell [8]) | Activity (Neural stem cell [9]) | Activity (Neural stem cell [10]) | Activity (Neural stem cell [11]) | Activity [12] [%] | Activity [13] [%] | Activity [14] [%]
CC(C)=CCC[C@](C)(O)[C@H]1CC[C@]2(C)[C@@H]1[C@H](O)C[C@@H]1[C@@]3(C)CC[C@H](O[C@@H]4O[C@H](CO)[C@@H](O)[C@H](O)[C@H]4O[C@@H]4O[C@H](CO)[C@@H](O)[C@H](O)[C@H]4O)C(C)(C)[C@@H]3CC[C@]12C | 140 | 16.1 | 35.9 | – | – | – | – | – | – | – | – | – | – | –
CC(C)=CC/C=C(\C)[C@H]1CC[C@]2(C)[C@@H]1[C@H](O)C[C@@H]1[C@@]3(C)CC[C@H](O[C@@H]4O[C@H](CO)[C@@H](O)[C@H](O)[C@H]4O[C@@H]4O[C@H](CO)[C@@H](O)[C@H](O)[C@H]4O)C(C)(C)[C@@H]3CC[C@]12C [GINSENOSIDE RG5] | 132 | 30.5 | 25.2 | Active | 29.6 | 4 | tde | Active | Active | Active | Active | – | – | –
C=C(CCC=C(C)C)[C@H]1CC[C@]2(C)[C@@H]1[C@H](O)C[C@@H]1[C@@]3(C)CC[C@H](O[C@@H]4O[C@H](CO)[C@@H](O)[C@H](O)[C@H]4O[C@@H]4O[C@H](CO)[C@@H](O)[C@H](O)[C@H]4O)C(C)(C)[C@@H]3CC[C@]12C [GISENOSIDE RK1] | 107 | 28.4 | 28.8 | – | – | – | – | – | – | – | – | – | – | –
CC1=C(/C=C/C(C)=C/C=C/C(C)=C/C(=O)O)C(C)(C)CCC1 [TRETINOIN] | – | – | – | – | – | – | – | – | – | – | – | 16.5 | 36.3 | 148
